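48-hour exposure; five concentrations; linearly interpolated endpoints. Abbreviation: GI50, concentration required for 50% inhibition of growth.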 Calls of active or inactive are those of the source. Rule as the data show it: active = GI50 up to about 1.1 µM and inactive = higher. Square brackets hold non-standard residues; d marks the D form. Peptide text beside a SMILES is read from it. pGlu = O=C1CC[C@@H](C(=O)O)N1; Thz = O=C(O)[C@@H]1CSCN1
What was measured:
Test in all cases: NCI-60 cell line screen, 48 h
RXF 631 = tested on: RXF 631
DLD-1 = tested on: DLD-1
DMS-273 = tested on: DMS-273
M19-MEL = tested on: M19-MEL
LXFL 529 = tested on: LXFL 529
MDA-N = tested on: MDA-N
KM-20L2 = tested on: KM-20L2
SNB-78 = tested on: SNB-78
XF498 = tested on: XF498

Question: What does the source list for `CCN(CC)CCNc1ccc2nc(C)n3c4ccc(O)cc4c(=O)c1c23`?
Answer: GI50 (RXF 631): 0.331 µM (active); GI50 (DLD-1): 0.371 µM (active); GI50 (DMS-273): 0.37 µM (active); GI50 (M19-MEL): 3.49 µM (inactive); GI50 (LXFL 529): 0.78 µM (active)

Question: How did the GI50 (MDA-N) turn out when `CCC(CS(=O)(=O)O)[N+](=O)[O-]` (centres undefined) was run?
Answer: Its GI50 is > 100 µM (inactive).

Question: With `O=C(c1ccccc1)c1ccc(N2C(=O)/C(=C/c3cccc(Oc4ccccc4)c3)N=C2c2ccccc2)c(N2C(=O)/C(=C/c3cccc(Oc4ccccc4)c3)N=C2c2ccccc2)c1` as the molecule, how does the GI50 (MDA-N) read?
Answer: The GI50 was 5.09 µM (inactive).

Question: What does the source list for `Cc1ccc(C(=O)NC2CCCCC2)cc1/N=N/N(C)C`?
Answer: GI50 (KM-20L2): > 100 µM (inactive); GI50 (DLD-1): > 100 µM (inactive); GI50 (DMS-273): > 100 µM (inactive); GI50 (M19-MEL): > 100 µM (inactive); GI50 (SNB-78): > 100 µM (inactive); GI50 (LXFL 529): > 100 µM (inactive)

Question: For `C[C@]12CC[C@H](O)CC1=CC[C@@H]1[C@@H]2CC[C@]2(C)C(=N/O)/C(=C/c3ccc([N+](=O)[O-])cc3)C[C@@H]12`, which GI50 (MDA-N) is on record?
Answer: Its GI50 is 6.93 µM (inactive).

Question: How did the GI50 (MDA-N) turn out when `CC(CCc1ccccc1)NCC(O)n1c(/N=N/N(C)C)nc2c1c(=O)n(C)c(=O)n2C` (centres undefined) was run?
Answer: The GI50 was > 100 µM (inactive).

Question: `CCO/C(=N/S(=O)(=O)C(F)(F)F)N(C(C)C)C(C)C` was tested. Which GI50 (MDA-N) did it give?
Answer: Its GI50 is > 100 µM (inactive).

Question: Which GI50 (KM-20L2) does the source give for `O=C(O)/C(Cl)=C(\Cl)C(=O)Nc1ccc(Cl)c(Cl)c1Cl` here?
Answer: The GI50 was 23.2 µM (inactive).

Question: And the GI50 (DLD-1)?
Answer: Its GI50 is 24.5 µM (inactive).

Question: And the GI50 (DMS-273)?
Answer: The GI50 was 21 µM (inactive).

Question: What about the GI50 (M19-MEL) of the same molecule?
Answer: The GI50 was 16.8 µM (inactive).

Question: What about the GI50 (SNB-78) of the same molecule?
Answer: The GI50 was 28.4 µM (inactive).

Question: What about the GI50 (LXFL 529) of the same molecule?
Answer: The GI50 was 20.1 µM (inactive).

Question: Which GI50 (XF498) does the source give for `OCCCCCCOc1ccc(-c2cc(-c3ccccn3)nc(-c3ccccn3)c2)cc1` here?
Answer: The GI50 was 1.51 µM (inactive).

Question: And the GI50 (KM-20L2)?
Answer: The GI50 was 0.0897 µM (active).

Question: And the GI50 (DLD-1)?
Answer: Its GI50 is 0.169 µM (active).

Question: What about the GI50 (DMS-273) of the same molecule?
Answer: Its GI50 is 0.211 µM (active).

Question: And the GI50 (MDA-N)?
Answer: The GI50 was 0.526 µM (active).

Question: And the GI50 (M19-MEL)?
Answer: Its GI50 is 0.253 µM (active).

Question: And the GI50 (SNB-78)?
Answer: Its GI50 is 0.524 µM (active).

Question: And the GI50 (LXFL 529)?
Answer: The GI50 was 0.242 µM (active).

Question: Which GI50 (MDA-N) does the source give for `O=C(CCCl)NN=C1NCCN1` here?
Answer: The GI50 was > 100 µM (inactive).

Question: How did the GI50 (MDA-N) turn out when `CCC(=O)O[C@H]1CC[C@H]2[C@@H]3CCC4=C/C(=N/OC(=O)c5cccc6cc7ccccc7nc56)CC[C@]4(C)[C@H]3CC[C@]12C` was run?
Answer: The GI50 was 51.5 µM (inactive).

Question: How did the GI50 (RXF 631) turn out when `CC(C)c1cccc(C(C)C)c1NC(=O)/C(Cc1nc2ccc(Cl)cc2nc1O)=N\NC(=O)C[N+](C)(C)C` was run?
Answer: The GI50 was > 100 µM (inactive).

Question: What about the GI50 (KM-20L2) of the same molecule?
Answer: Its GI50 is > 100 µM (inactive).

Question: And the GI50 (DLD-1)?
Answer: The GI50 was > 100 µM (inactive).

Question: What about the GI50 (M19-MEL) of the same molecule?
Answer: Its GI50 is > 100 µM (inactive).

Question: How did the GI50 (MDA-N) turn out when `CCC(C)C(=O)OCC(=O)c1ccc(-c2ccccc2)cc1` (centres undefined) was run?
Answer: The GI50 was 45.7 µM (inactive).

Question: How did the GI50 (MDA-N) turn out when `COC(=O)C1=C(C(=O)OC)N(c2ccncc2)C(c2ccco2)=CC1c1ccccc1[N+](=O)[O-]` (centres undefined) was run?
Answer: Its GI50 is 2.71 µM (inactive).

Question: `COc1cc(Br)c(/C=N\c2cccc3ccc(OS(=O)(=O)c4cccc([N+](=O)[O-])c4)cc23)cc1OC` was tested. Which GI50 (DLD-1) did it give?
Answer: The GI50 was 35.5 µM (inactive).

Question: What about the GI50 (M19-MEL) of the same molecule?
Answer: Its GI50 is 36.1 µM (inactive).

Question: And the GI50 (SNB-78)?
Answer: The GI50 was 12 µM (inactive).

Question: What about the GI50 (LXFL 529) of the same molecule?
Answer: The GI50 was 14.3 µM (inactive).

Question: `CC(N)C(=O)OCN1C(=O)C2C3C=CC(C2C1=O)C1C2C(=O)N(COC(=O)C(C)N)C(=O)C2C31` (centres undefined) was tested. Which GI50 (XF498) did it give?
Answer: Its GI50 is 19 µM (inactive).

Question: And the GI50 (KM-20L2)?
Answer: Its GI50 is 28.2 µM (inactive).

Question: And the GI50 (DLD-1)?
Answer: Its GI50 is 24.5 µM (inactive).

Question: And the GI50 (DMS-273)?
Answer: The GI50 was 18.5 µM (inactive).

Question: And the GI50 (M19-MEL)?
Answer: The GI50 was 23.6 µM (inactive).

Question: And the GI50 (SNB-78)?
Answer: The GI50 was 57 µM (inactive).

Question: And the GI50 (LXFL 529)?
Answer: Its GI50 is 26.4 µM (inactive).

Question: With `CCCCCC[C@H]([C@H](C)O)n1cnc2c(N)ncnc21` as the molecule, how does the GI50 (MDA-N) read?
Answer: The GI50 was > 100 µM (inactive).

Question: Which GI50 (MDA-N) does the source give for `CCn1c(-c2ccccc2)nc2c1C(=O)c1ccccc1C2=O` here?
Answer: Its GI50 is 18.8 µM (inactive).

Question: With `CC(=O)NNc1nc(C)c(C(/C=C/c2ccc([N+](=O)[O-])cc2)=N/N)s1` as the molecule, how does the GI50 (MDA-N) read?
Answer: The GI50 was > 100 µM (inactive).

Question: For `N#Cc1nc(-c2cc([N+](=O)[O-])cc([N+](=O)[O-])c2)oc1N`, which GI50 (MDA-N) is on record?
Answer: The GI50 was > 10 µM (inactive).

Question: For `COc1ccc2c(c1)/C(=C\c1c(Cl)nc3sc(C)cn13)C(=O)N2`, which GI50 (MDA-N) is on record?
Answer: The GI50 was 0.418 µM (active).

Question: Which GI50 (MDA-N) does the source give for `Cc1cc(C)c(O)c(CN2CCN(C(C)C)CCN(C(C)C)CC2)c1` here?
Answer: The GI50 was 20.6 µM (inactive).

Question: `O=c1[nH]ccc(CNC23CC4CC(CC(C4)C2)C3)c1O` was tested. Which GI50 (XF498) did it give?
Answer: Its GI50 is > 100 µM (inactive).

Question: And the GI50 (KM-20L2)?
Answer: Its GI50 is > 100 µM (inactive).

Question: And the GI50 (DLD-1)?
Answer: The GI50 was > 100 µM (inactive).

Question: And the GI50 (DMS-273)?
Answer: Its GI50 is > 100 µM (inactive).

Question: What about the GI50 (M19-MEL) of the same molecule?
Answer: Its GI50 is > 100 µM (inactive).

Question: What about the GI50 (SNB-78) of the same molecule?
Answer: Its GI50 is > 100 µM (inactive).

Question: And the GI50 (LXFL 529)?
Answer: Its GI50 is > 100 µM (inactive).

Question: With `CC1(C)CCC[C@@]2(C)C1CC[C@@]1(CO)O[C@H](C3=CC(=O)OC3O)C[C@H]12` (some centres undefined) as the molecule, how does the GI50 (MDA-N) read?
Answer: Its GI50 is 12.6 µM (inactive).

Question: For `C[C@]12OC(=O)[C@]3(O)CC[C@H]4[C@@H](C[C@@H](O)[C@@]5(Cl)CC=CC(=O)[C@]45C)[C@]45OCC6C(=O)O[C@@H]1C[C@@]6(C)[C@H](C4=O)[C@@]32O5` (some centres undefined), which GI50 (MDA-N) is on record?
Answer: The GI50 was 1.16 µM (inactive).

Question: How did the GI50 (MDA-N) turn out when `COc1cc(Br)c(CC2C3=C(CCN2C(=O)C2CCC2)CC2(CC3)OCCO2)cc1O` (centres undefined) was run?
Answer: The GI50 was 34.4 µM (inactive).

Question: For `COc1cc2c(c(OC)c1OC)-c1ccc(SC)c(=O)cc1[C@@H](NC(=O)c1ccc(Cl)cc1)CC2`, which GI50 (RXF 631) is on record?
Answer: Its GI50 is < 0.01 µM (active).

Question: And the GI50 (KM-20L2)?
Answer: Its GI50 is < 0.01 µM (active).

Question: And the GI50 (DLD-1)?
Answer: Its GI50 is < 0.01 µM (active).

Question: And the GI50 (DMS-273)?
Answer: The GI50 was < 0.01 µM (active).

Question: What about the GI50 (M19-MEL) of the same molecule?
Answer: Its GI50 is < 0.01 µM (active).

Question: What about the GI50 (LXFL 529) of the same molecule?
Answer: Its GI50 is < 0.01 µM (active).

Question: For `COc1ccc(-c2oc3cc(OC)c(OC)c(O)c3c(=O)c2OC)cc1`, which GI50 (MDA-N) is on record?
Answer: The GI50 was > 100 µM (inactive).

Question: `NCCCNCCCCN1CC1` was tested. Which GI50 (MDA-N) did it give?
Answer: Its GI50 is 3.63 µM (inactive).

Question: `COc1ccc2cc1Oc1ccc(cc1)C[C@H]1c3cc(c(OC)cc3CCN1C)Oc1c(OC)c(OC)cc3c1[C@H](C2)N(C)CC3` [FANCHININ] was tested. Which GI50 (XF498) did it give?
Answer: The GI50 was 10.6 µM (inactive).

Question: And the GI50 (KM-20L2)?
Answer: The GI50 was 3.8 µM (inactive).

Question: And the GI50 (DLD-1)?
Answer: The GI50 was 9.29 µM (inactive).

Question: And the GI50 (DMS-273)?
Answer: The GI50 was 6.31 µM (inactive).

Question: And the GI50 (SNB-78)?
Answer: Its GI50 is 9.44 µM (inactive).

Question: For `O=C1CC[C@@H](C(=O)N2CSC[C@H]2C(=O)O)N1` [PIDOTIMOD] ([pGlu]-[Thz]-OH), which GI50 (MDA-N) is on record?
Answer: Its GI50 is > 100 µM (inactive).

Reference: ChEMBL document CHEMBL1201862, “PubChem BioAssay data set” (2004)
